According to US20190192458A1, “THERAPEUTIC/PROPHYLACTIC AGENT FOR GRAFT-VERSUS-HOST DISEASE, FIBROCYTE INVASION INHIBITOR, AND INHIBITOR AGAINST TEAR REDUCTION AND REDUCTION IN GOBLET CELLS” (KEIO UNIVERSITY, priority 2016, published 2019):

Assays:
[1] = test system: endoplasmic reticulum stress markers and related inflammation markers in cGVHD target organs; experiment: Immunoblot analysis of endoplasmic reticulum stress markers and related inflammation markers in cGVHD target organs; format: in vivo, mouse; settings: n=4
Method: Bone marrow transplantation was performed as described in the above section “Bone marrow transplantation,” and the resulting allogeneic bone marrow transplantation recipient mice were divided into two groups. One group was treated with intraperitoneal injection of PBA (10 mg/kg) (Aldrich) while the other was treated with intraperitoneal injection of a solvent vehicle⋅phosphate buffered saline (PBS) (pH 7.4). The allogeneic bone marrow transplantation recipients received once-daily administration of PBA or the solvent vehicle from Day 10 to Day 27 after bone marrow transplantation. They were sacrificed on Day 28 after bone marrow transplantation.
cGVHD-affected organs (exorbital lacrimal gland, proximal portion of the small intestine, dorsal skin, liver, salivary gland, lung, large intestine, and eyes) were analyzed herein.
Tissues of interest were each placed into an Eppendorf tube, and a pre-cooled RIPA buffer solution was then added to the tube. Subsequently, the tissues were each homogenized with an electric homogenizer. Samples were each allowed to stand on ice for 1 hour, and then centrifuged at 15000 rpm for 5 minutes at 4° C. Then, the supernatants were each collected in a fresh tube on ice, and used as a cell lysate. The cell lysates each received the same amount of a 5×Laemmli buffer solution, and each was heated at 100° C. for 5 minutes to denature proteins.
An aliquot of each sample having the same amount of proteins was loaded into a well of an SDS-PAGE gel, and then […]. Proteins were transferred from the gel to a membrane at 15 V for 20 minutes. The membrane was blocked at room temperature for 1 hour with 5% skim milk or 5% BSA (bovine serum albumin) in 1×TBST (a mixture of Tris-buffered saline and Tween 20). Subsequently, the membrane was incubated with a primary antibody at 4° C. overnight. The above primary antibody was diluted 1000 times with 5% skim milk or 5% BSA in 1×TBST. After incubation with the primary antibody, the membrane was washed with 1×TBST (3×10 minutes), and subjected to a secondary antibody at room temperature for 1 hour, and then washed with 1×TBST (3×10 minutes) and 1×TBS (2×10 minutes).
Proteins of interest were visualized by either one of the following two methods. (1) A target protein was colorimetrically detected using a BCIP/NBT substrate (Promega). (2) A signal was developed with an enhanced chemiluminescence (ECL) detection reagent (GE Healthcare), and a target protein was then visualized with an LAS4000 mini chemiluminescence imaging system (FUJIFILM Corporation/GE Healthcare).
The intensity of the resulting protein band was analyzed using image processing software ImageJ. Primary antibodies used in the experiments were GRP78 (Abcam), phospho-PERK (Thr980; Cell Signaling Technology Inc.), PERK (C33E10; Cell Signaling Technology Inc.), phosphor-IRE1α (Thermo Fisher Sceientific), IRE1α (14C10; Cell Signaling Technology Inc.), phosphor-eIF2α (119A11; Cell Signaling Technology Inc.), eIF2α (Cell Signaling Technology Inc.), CHOP (9C8; Thermo Fisher Scientific), TXNIP (D5F3E, Cell Signaling Technology Inc.), NF-κB (Abcam), HSP47 (SPA-470; Stress-Gen Biotechnologies Corp.), CTGF (Abcam), and β-actin (AC-15; Abcam).
With regard to the secondary antibody, (1) either AP-conjugated anti-mouse IgG antibody (Promega) or AP-conjugated anti-rabbit IgG antibody (Promega) was used when protein bands were chromogenically visualized; (2) HRP-conjugated anti-mouse antibody (Thermo Fisher Scientific) or HRP-conjugated anti-rabbit antibody (Thermo Fisher Scientific) was used when target proteins were detected by ECL.

[2] = test system: CHOP-expressing macrophages in lacrimal gland; experiment: Immunofluorescence of CD68/CHOP in lacrimal gland; format: in vivo; settings: lacrimal gland from PBA-treated vs vehicle-treated mouse, FIG. 7A
Method: Bone marrow transplantation was performed as described in the above section “Bone marrow transplantation,” and the resulting allogeneic bone marrow transplantation recipient mice were divided into two groups. One group was treated with intraperitoneal injection of PBA (10 mg/kg) (Aldrich) while the other was treated with intraperitoneal injection of a solvent vehicle⋅phosphate buffered saline (PBS) (pH 7.4). The allogeneic bone marrow transplantation recipients received once-daily administration of PBA or the solvent vehicle from Day 10 to Day 27 after bone marrow transplantation. They were sacrificed on Day 28 after bone marrow transplantation. […]
Fluorescence images were captured under an LSM confocal microscope (Carl Zeiss). For counting CD45^+ cells, 5 randomly selected regions per section were photographed at a magnification of ×200, and the number of CD45^+ cells in each image was then determined. […]

[3] = PBA-treated vs vehicle-treated organs
[4] = organs of PBA-treated (10 mg/kg i.p.) vs vehicle-treated cGVHD mice

For `O=C(O)CCCc1ccccc1` [PBA, 4-phenyl-n-butyric acid], the “proinflammatory molecule NF-κB in organs” value [1, 3] was “inhibited”, the “proinflammatory molecule TXNIP in organs” value [1, 3] was “inhibited” and the “protein level of CHOP in organs” value [1, 4] was “lower protein levels”. The “protein level of GRP78 in organs” value [1, 4] was “lower protein levels”, the “protein level of p-IRE1α in organs” value [1, 4] was “lower protein levels” and the “protein level of p-PERK in organs” value [1, 4] was “lower protein levels”. The “protein level of p-eIF2α in organs” value [1, 4] was “lower protein levels” and the “CHOP-expressing macrophages migrated into lacrimal gland” value [2] was “not observed”.
